# Test results: US10494405B2, “Methods and compositions for the treatment of arthritis” (THE REGENTS OF THE UNIVERSITY OF MICHIGAN, priority 2015, dated 2019)
# Numbered stars: 1 amine (or outer) side, 2 acyl side, 3 side chain; on linkers, the order of the positions; unused ones are H or OH. Bridge positions count the residues as written; N and C are the ends. Square brackets hold non-standard residues; d marks the D form. Peptide text beside a SMILES is read from it. CO = O=C([*:1])[*:2]; Nlys = NCCCCNCC(=O)O
# Legend:
# human cells = assay: In vitro osteoclastogenesis, human cells; assay type: cell-based
# [1] = tested on: murine pre-OC cell line RAW 264.7; assay: In vitro osteoclastogenesis, mouse cells (RAW 264.7); assay type: cell-based
# Excerpt: In vitro osteoclastogenesis of murine pre-OC cell line RAW 264.7 in the presence of different doses of BK2.
# SE-activated signaling = assay: Inhibition of SE-activated signaling in vitro; assay type: cell-based; details: read-out: IC50, inhibitor of SE-activated signaling
# DBA/1 mice with CIA = assay: Collagen-induced arthritis (CIA) in DBA/1 mice; assay type: in vivo, mouse
# Description: A. DBA/1 mice with CIA received weekly ip doses of BK2, 446 pg/gm, or PBS (black) starting on day −1 relative to day of CIA induction, and joint swelling was recorded. N=10 per group. B. DBA/1 mice with CIA received a total of 4 weekly ip doses of BK2, 446 pg/gm, or PBS (black) starting at day 20 relative to day of CIA induction, at the time of arthritis onset, and joint swelling was recorded. Arrows indicate the treatment days. N=10 per group. C. DBA/1 mice with CIA received weekly sq doses of BK2446 pg/gm, or PBS (black) starting at day −1 relative to day of CIA induction, and joint swelling was recorded. N=10 per group. […] E. DBA/1 mice with CIA received a total of 4 weekly sq doses of BK2, 446 pg/gm, or PBS (black) starting at day 20 relative to day of CIA induction, at the time of arthritis onset, and joint swelling was recorded. Arrows indicate the treatment days. N=10 per group.
compound,measurement,setting,value
"C[C@H](NC(=O)CN1CCCCNC(=O)NCCCCN(C(=O)[C@@H](N)Cc2c[nH]c3ccccc23)CC(=O)N[C@@H](CC(=O)O)C(=O)N[C@@H](CCCCN)C(=O)N[C@@H](CO)C1=O)C(N)=O [BK2, Trp-c[Gly(4-aminobutyl)-Asp-Lys-Ser-Gly(4-aminobutyl)]-Ala-NH2] (H-W[Nlys]DKS[Nlys]A-NH2; linker 2-6 via CO)",IC50 of anti-osteoclastogenic effect in vitro,human cells,pM-range
same,IC50 of anti-osteoclastogenic effect in vitro,[1],pM-range
same,IC50,SE-activated signaling,~10 mM
same,Inhibition of bone destruction in vivo,DBA/1 mice with CIA; CIA mice,inhibition effect
same,Inhibition of osteoclastogenesis in vivo,DBA/1 mice with CIA; CIA mice,inhibition effect
same,Inhibition effect on CIA (joint swelling),"DBA/1 mice with CIA; DBA/1 mice, weekly ip or sq 446 pg/gm, from day -1 or day 20",highly potent (picogram-range doses) inhibition effect
same,Radiological scores (bone destruction),DBA/1 mice with CIA; FIG. 3D: weekly sq 446 pg/gm starting day -1,protective effect on bone destruction
same,Radiological scores (bone destruction),DBA/1 mice with CIA; FIG. 3F: 4 weekly sq doses 446 pg/gm starting day 20 (arthritis onset),protective effect on bone destruction
